Measured values as given in patent publication US7935718B2, “Treatment of dyskinesia” (Motac Neuroscience Limited, priority 2000, dated 2011).

Tests used:
[1] = system: reserpine-treated rat model of Parkinson's disease; assay: Locomotion (hyperkinesia) after chloro-APB in reserpine-treated parkinsonian rats; assay type: in vivo; conditions: reserpine (3 mg/kg) rats, chloro-APB (0.2 mg/kg) + imetit (1 mg/kg) versus vehicle, one hour period
Method: The effect of the H3-histamine receptor agonist imetit on dyskinesia was assessed in a reserpine-treated rat model of Parkinson's disease following treatment of the rats with the anti-parkinsonian agent chloro-APB (0.2 mg/kg).
Male Sprague-Dawley rats were split into two groups A and B. Rats in both groups were rendered parkinsonian by subcutaneous administration of reserpine (3 mg/kg) for 18 hours.
After the 18 hours Group A were treated with chloro-APB (0.2 mg/kg) and imetit (1 mg/kg) whereas B were treated with chloro-APB (0.2 mg/kg) and vehicle for imetit only.
The locomotion of the rats in Groups A and B was measured over a one hour period using Benwick locomotor monitors. These locomotion monitors consist of a visually-shielded open-field arena, the perimeter of which is surrounded by a series of infra-red beams arranged at 5 cm intervals. PC-based software (Amlogger) assesses the number of beams broken. The number of beams broken as part of a locomotor movement (mobile counts) or the number of beam breaks while the animal is not locomoting (static counts) were measured. In addition, the system assesses the time for which animals are mobile or static.

[2] = system: MPTP-lesioned marmoset model of Parkinson's disease; assay: L-DOPA-induced mobility and dyskinesia in MPTP-lesioned marmosets; assay type: in vivo, Marmosets (Callithrix jacchus); conditions: L-DOPA (8 mg/kg) + imetit 1, 3, 10 mg/kg oral; assessed every 30 minutes for 4 hours
Method: The effect of the H3-histamine receptor agonist imetit on L-DOPA-induced dyskinesia was assessed in the MPTP-lesioned marmoset model of Parkinson's disease.
Marmosets (Callithrix jacchus) (bred in a closed colony at the University of Manchester) are rendered parkinsonian by subcutaneous injection of 2 mg kg^−1 MPTP for 5 consecutive days. The marmosets are allowed to recover for a minimum of 10 weeks until their parkinsonism becomes stable. The degree of activity and disability before and after MPTP treatment is assessed using a combination of scales as described in section 2.1.2. Animals are then treated with L-DOPA for at least 3 weeks to prime them to elicit dyskinesia. […]
The behavioural tests were assessed every 30 minutes for 4 hours, by post hoc analysis of video-recordings by an observer blinded to the treatment. […]

## N=C(N)SCCc1cnc[nH]1 [imetit]
[1]
  total mobile counts: less than those treated with vehicle
[2]
  L-DOPA-induced mobility (mobility score): no effect on L-DOPA-induced mobility
  severity of L-DOPA-induced dyskinesia (dyskinesia score): dose-dependent reduction
